The source of these data is patent US20250108139A1, “PEPTIDE UREA DERIVATIVE, PHARMACEUTICAL COMPOSITION CONTAINING PEPTIDE UREA DERIVATIVE, AND APPLICATION OF PEPTIDE UREA DERIVATIVE” (BIVISION PHARMACEUTICALS, INC, priority 2022, published 2025).

Data set [1] deals with PSMA protein (Homo sapiens (Human), UniProt Q04609). In words: Affinity of DB compounds to PSMA protein using Biacore (Effect Example 3). The note with it: Biacore 8K, 15° C., 1:1 binding model; pKD=−Log KD. The procedure:
The affinity of DB compounds to PSMA protein was tested using the Biacore 8K (Cytiva) instrument to detect ligand binding to PSMA protein (Sino Biological). PSMA protein was captured on an SA chip. Before fixing the ligand (flow paths 1 and 2, flow rate of 10 μL/min), PSMA protein (10 μg/mL, flow rate of 5 μL/min, injection time of 600 s) was fixed on flow path 2 using a flow buffer. The sensor surface was adjusted by continuously injecting 1 M NaCl three times in 50 mM NaOH. After each ligand injection, additional cleaning was performed using isopropanol in 1 M NaCl and 50 mM NaOH (flow paths 1 and 2, flow rate of 10 μL/min, injection time of 60 s).
All compounds were dissolved in 100% DMSO and diluted to 10 mM, then further diluted to the appropriate highest concentration in the analysis buffer (PBS, PH 7.4, 1 mM TCEP ([…]), 0.05% P20, 2% DMSO). The analysis was conducted under the following conditions: 15° C. analysis temperature; analysis steps=all set to LMW kinetics; cycle type=single cycle (90 s contact time, 1800 s dissociation time, 30 μL/min flow rate, flow paths 1 and 2); detection in flow=path 2-1. Data evaluation was performed using Biacore Insight Evaluation Software, fitting the data to a 1:1 binding model.
Biacore results are shown in Table 5: pKD=−Log KD, wherein KD is the binding affinity of the compound to PSMA protein measured by Biacore. It is expressed by Kd (M)=Kd (1/s)/Ka (1/Ms). A indicates pKD>8; B indicates 7<pKD<8; C indicates 6<pKD<7; D indicates pKD<6.
Background: Surface plasmon resonance follows binding to a sensor surface in real time, without labels.

In data set [2] the test system is PSMA-positive 22rv1 tumor-bearing mouse. The data set is described as follows: 177Lu labeling and animal biodistribution experiment, gamma counter. Type of data set: in vivo. The note with it: 177Lu-labeled compound, 24 h after tail vein injection, n = 2. How it is done: Distribution in PSMA-positive tumor-bearing mouse tissues: Tumor-bearing animals (purchased from Shanghai Alamo Pharmaceutical Technology Co., Ltd.) were subcutaneously inoculated with 3×10^6 22rv1 cells (in 50% Matrigel, Corning) into the right shoulder region of 6-9 week old (Balb/c Nude) mouse. Once the tumors had grown to an appropriate size, ^177Lu-radiolabeled DB compounds were injected into the mouse via the tail vein (approximately 1.85 MBq-3.7 MBq/mouse, specific activity: 22423.82 Kbq/μg). After administration, the animals were euthanized using carbon dioxide inhalation at 24 hours. The blood and organs (blood, liver, kidney, muscle, tumor) were collected.
Blood was collected through the abdominal aorta and 100 μL was immediately quantified into designated centrifuge tubes (weighed). After collection, the organs were washed twice with deionized water, dried, placed in pre-weighed tubes, and weighed again to calculate the sample weight. Samples were measured on the day of collection. All blood and tissue samples were measured for radioactivity using a gamma counter. The results are shown in FIGS. 3, 4, 5, 6, 7, and Table 6.

Data set [3] relates to human prostate cancer cell line 22RV1 tumor model. In words: Micro-SPECT/CT scanning imaging study in mouse transplanted with 22RV1. Format: in vivo. The note with it: for Uptake in Bladder / Uptake in Kidney / Uptake in Liver / Uptake in Muscle / Uptake in Tumor (22Rv1): i.v., Micro-SPECT/CT. How it is done:
Human prostate cancer cell line 22RV1 cells were subcutaneously injected into the axilla of nude mouse to establish a prostate cancer tumor model. Approximately 3.7 MBq (100 μCi/200 μL) of the ^177Lu-labeled compound [^177Lu] DB-01 was administered via intravenous injection. SPECT/CT images were acquired using the U-SPECT+/CT (MI Labs) at 3rd hour, 5th hour, 24th hour, 72nd hour, 120th hour and 168th hour post-injection, and the resulting SPECT/CT images were quantitatively analyzed.
Table 4 presents the uptake in various organs of mouse at the 3rd hour, 5th hour, 24th hour, 72nd hour, 120th hour, and 168th hour post-injection of [^177Lu] DB-01. The results are expressed as the quantitative percentage of the injected dose (% ID)/g, based on Micro-SPECT/CT quantitative analysis.

Chain of PSMA protein (Q04609 whole entry): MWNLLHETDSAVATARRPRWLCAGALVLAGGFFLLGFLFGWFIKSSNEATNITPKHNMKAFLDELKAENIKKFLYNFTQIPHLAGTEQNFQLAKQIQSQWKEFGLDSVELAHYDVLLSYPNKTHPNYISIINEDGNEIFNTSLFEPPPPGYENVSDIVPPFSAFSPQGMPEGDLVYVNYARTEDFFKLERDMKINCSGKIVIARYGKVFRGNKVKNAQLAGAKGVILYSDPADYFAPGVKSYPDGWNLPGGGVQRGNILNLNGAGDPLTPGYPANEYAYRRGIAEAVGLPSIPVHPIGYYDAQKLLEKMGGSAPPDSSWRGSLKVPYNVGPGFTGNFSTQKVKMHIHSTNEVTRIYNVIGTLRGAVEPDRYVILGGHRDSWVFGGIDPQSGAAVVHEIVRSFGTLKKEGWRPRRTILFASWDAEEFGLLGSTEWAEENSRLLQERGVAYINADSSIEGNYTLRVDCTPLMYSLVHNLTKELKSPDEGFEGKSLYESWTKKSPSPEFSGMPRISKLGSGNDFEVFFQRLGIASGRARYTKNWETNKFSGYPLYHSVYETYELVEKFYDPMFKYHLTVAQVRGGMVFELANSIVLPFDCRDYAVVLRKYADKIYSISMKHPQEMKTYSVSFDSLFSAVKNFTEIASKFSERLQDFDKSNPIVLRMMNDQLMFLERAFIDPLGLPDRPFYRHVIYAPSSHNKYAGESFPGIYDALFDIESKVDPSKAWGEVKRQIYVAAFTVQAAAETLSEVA

One may read the Kd as the free concentration of one partner at which half of the binding sites on the other are occupied at equilibrium, for simple one-to-one binding. A higher Kd goes with weaker binding. On to `O=C(O)CC[C@H](NC(=O)N[C@@H](CCCCNC(=O)[C@H](Cc1ccc2ccccc2c1)NC(=O)[C@H]1CC[C@H](CNC(=O)CNC(=O)c2cc(NC(=O)CN3CCN(CC(=O)O)CCN(CC(=O)O)CCN(CC(=O)O)CC3)cc(C(=O)NCC(=O)NC[C@H]3CC[C@H](C(=O)N[C@@H](Cc4ccc5ccccc5c4)C(=O)NCCCC[C@H](NC(=O)N[C@@H](CCC(=O)O)C(=O)O)C(=O)O)CC3)c2)CC1)C(=O)O)C(=O)O` [DB-02], for which, in data set [1], the Kd is less than 10 nM.

Regarding `O=C(O)CC[C@H](NC(=O)N[C@@H](CCCCNC(=O)[C@H](Cc1ccc2ccccc2c1)NC(=O)c1ccc(C2CCN(C(=O)CCC(=O)NCC(=O)N3CN(C(=O)CNC(=O)CCC(=O)N4CCC(c5ccc(C(=O)N[C@@H](Cc6ccc7ccccc7c6)C(=O)NCCCC[C@H](NC(=O)N[C@@H](CCC(=O)O)C(=O)O)C(=O)O)cc5)CC4)CN(C(=O)CNC(=O)CN4CCN(CC(=O)O)CCN(CC(=O)O)CCN(CC(=O)O)CC4)C3)CC2)cc1)C(=O)O)C(=O)O` [DB-12], the Kd in data set [1] is less than 10 nM. In data set [2], the Blood uptake is on record as 0.145 % ID/g, the Kidney uptake came out at 88.175 % ID/g, the Liver uptake is given as 1.415 % ID/g and the Muscle uptake came out at 0.135 % ID/g.

In turn, `O=C(O)CC[C@H](NC(=O)N[C@@H](CCCCNC(=O)[C@H](Cc1ccc2ccccc2c1)NC(=O)c1ccc2c(c1)CCN(C(=O)CCC(=O)NCC(=O)N1CN(C(=O)CNC(=O)CCC(=O)N3CCc4cc(C(=O)N[C@@H](Cc5ccc6ccccc6c5)C(=O)NCCCC[C@H](NC(=O)N[C@@H](CCC(=O)O)C(=O)O)C(=O)O)ccc4C3)CN(C(=O)CNC(=O)CN3CCN(CC(=O)O)CCN(CC(=O)O)CCN(CC(=O)O)CC3)C1)C2)C(=O)O)C(=O)O` [DB-14] had a Kd in data set [1] of less than 10 nM. Moreover, in data set [2], the Blood uptake was found to be 0.06 % ID/g, the Kidney uptake turned out to be 31.72 % ID/g, the Liver uptake was found to be 0.37 % ID/g and the Muscle uptake stood at 0.1 % ID/g. In data set [2], this compound showed a Tumor uptake of 43.175 % ID/g.

For `O=C(O)CC[C@H](NC(=O)NC(CCCCNC(=O)[C@H](Cc1ccc2ccccc2c1)NC(=O)[C@H]1CC[C@H](NC(=O)COCCOCCNC(=O)c2cc(NC(=O)CCCCCCCNC(=O)CN3CCN(CC(=O)O)CCN(CC(=O)O)CCN(CC(=O)O)CC3)cc(C(=O)NCCOCCOCC(=O)N[C@H]3CC[C@H](C(=O)N[C@@H](Cc4ccc5ccccc5c4)C(=O)NCCCC[C@H](NC(=O)N[C@@H](CCC(=O)O)C(=O)O)C(=O)O)CC3)c2)CC1)C(=O)O)C(=O)O` (stereo partly shown) [DB-15], the Kd in data set [1] is less than 10 nM. In data set [2], this compound gave a Blood uptake of 0.035 % ID/g, a Kidney uptake of 8.76 % ID/g, a Liver uptake of 0.095 % ID/g and a Muscle uptake of 0.04 % ID/g. The compound also gave a Tumor uptake in data set [2] of 19.46 % ID/g.

As to `O=C(O)CC[C@H](NC(=O)NC(CCCCNC(=O)[C@H](Cc1ccc2ccccc2c1)NC(=O)[C@H]1CC[C@H](NC(=O)CCC(=O)NCCCC[C@H](NC(=O)CCC(=O)N[C@H]2CC[C@H](C(=O)N[C@@H](Cc3ccc4ccccc4c3)C(=O)NCCCC[C@H](NC(=O)N[C@@H](CCC(=O)O)C(=O)O)C(=O)O)CC2)C(=O)NCCNC(=O)CN2CCN(CC(=O)O)CCN(CC(=O)O)CCN(CC(=O)O)CC2)CC1)C(=O)O)C(=O)O` (stereo partly shown) [DB-16], the Kd in data set [1] is less than 10 nM. In data set [2], this compound returned a Blood uptake of 0.03 % ID/g, a Kidney uptake of 5.135 % ID/g, a Liver uptake of 0.185 % ID/g and a Muscle uptake of 0.045 % ID/g. Besides, the Tumor uptake in data set [2] is on record as 12.015 % ID/g.

`O=C(O)CC[C@H](NC(=O)NC(CCCCNC(=O)[C@H](Cc1ccc2ccccc2c1)NC(=O)[C@H]1CC[C@H](NC(=O)c2cc(NC(=O)CNC(=O)CN3CCN(CC(=O)O)CCN(CC(=O)O)CCN(CC(=O)O)CC3)cc(C(=O)N[C@H]3CC[C@H](C(=O)N[C@@H](Cc4ccc5ccccc5c4)C(=O)NCCCC[C@H](NC(=O)N[C@@H](CCC(=O)O)C(=O)O)C(=O)O)CC3)c2)CC1)C(=O)O)C(=O)O` (stereo partly shown) [DB-17] gave a Kd in data set [1] of less than 10 nM.

In data set [1], `O=C(O)CC[C@H](NC(=O)NC(CCCCNC(=O)[C@H](Cc1ccc2ccccc2c1)NC(=O)c1ccc(C2CCN(C(=O)CCC(=O)NCCCC[C@H](NC(=O)CCC(=O)N3CCC(c4ccc(C(=O)N[C@@H](Cc5ccc6ccccc6c5)C(=O)NCCCC[C@H](NC(=O)N[C@@H](CCC(=O)O)C(=O)O)C(=O)O)cc4)CC3)C(=O)NCCNC(=O)CN3CCN(CC(=O)O)CCN(CC(=O)O)CCN(CC(=O)O)CC3)CC2)cc1)C(=O)O)C(=O)O` (stereo partly shown) [DB-20] showed a Kd of less than 10 nM. In data set [2], the Blood uptake was found to be 0.160 % ID/g, the Kidney uptake was 74.455 % ID/g, the Liver uptake is on record as 1.020 % ID/g and the Muscle uptake is on record as 0.175 % ID/g. Further, the Tumor uptake in data set [2] stood at 41.73 % ID/g.

`O=C(O)CC[C@H](NC(=O)N[C@@H](CCCCNC(=O)[C@H](Cc1ccc2ccccc2c1)NC(=O)C1CCC(CNC(=O)c2cc(NC(=O)C[N+]34CC[N+]56CC[N+]78CC[N+]9(CC3)CC(=O)[O][Lu-4]4597([O]C(=O)C6)[O]C(=O)C8)cc(C(=O)NC[C@H]3CC[C@H](C(=O)N[C@@H](Cc4ccc5ccccc5c4)C(=O)NCCCC[C@H](NC(=O)N[C@@H](CCC(=O)O)C(=O)O)C(=O)O)CC3)c2)CC1)C(=O)O)C(=O)O` (stereo partly shown) [[^177Lu] DB-01]: the “Uptake in Bladder” value in data set [3] (3 hr post-injection) was found to be 65.50 ± 36.65 % ID/g; in data set [3] (5 hr post-injection), 140.36 ± 10.51 % ID/g; in data set [3] (24 hr post-injection), 0.61 ± 0.00 % ID/g; in data set [3] (72 hr post-injection), 1.03 ± 0.62 % ID/g; in data set [3] (120 hr post-injection), 0.92 ± 0.06 % ID/g; in data set [3] (168 hr post-injection), 1.01 ± 0.38 % ID/g. In addition, the “Uptake in Kidney” value came to 43.00 ± 7.38 % ID/g in data set [3] (3 hr post-injection); 19.29 ± 2.77 % ID/g in data set [3] (5 hr post-injection); 1.32 ± 0.63 % ID/g in data set [3] (24 hr post-injection); 1.38 ± 0.29 % ID/g in data set [3] (72 hr post-injection); 0.77 ± 0.62 % ID/g in data set [3] (120 hr post-injection); 1.53 ± 0.46 % ID/g in data set [3] (168 hr post-injection). In addition, the “Uptake in Liver” value came to 2.75 ± 0.90 % ID/g in data set [3] (3 hr post-injection); 1.56 ± 0.15 % ID/g in data set [3] (5 hr post-injection); 0.91 ± 0.45 % ID/g in data set [3] (24 hr post-injection); 0.90 ± 0.42 % ID/g in data set [3] (72 hr post-injection); 0.99 ± 0.22 % ID/g in data set [3] (120 hr post-injection); 1.04 ± 0.26 % ID/g in data set [3] (168 hr post-injection). Besides, the “Uptake in Muscle” value was 1.97 ± 0.71 % ID/g in data set [3] (3 hr post-injection); 1.10 ± 0.56 % ID/g in data set [3] (5 hr post-injection); 0.51 ± 0.17 % ID/g in data set [3] (24 hr post-injection); 0.81 ± 0.23 % ID/g in data set [3] (72 hr post-injection); 0.43 ± 0.17 % ID/g in data set [3] (120 hr post-injection); 0.65 ± 0.34 % ID/g in data set [3] (168 hr post-injection). Moreover, the “Uptake in Tumor (22Rv1)” value in data set [3] (3 hr post-injection) turned out to be 21.25 ± 4.38 % ID/g; in data set [3] (5 hr post-injection), 21.28 ± 0.42 % ID/g; in data set [3] (24 hr post-injection), 15.51 ± 2.65 % ID/g; in data set [3] (72 hr post-injection), 12.41 ± 0.95 % ID/g; in data set [3] (120 hr post-injection), 8.90 ± 0.48 % ID/g; in data set [3] (168 hr post-injection), 7.85±1.16 % ID/g. In addition, the uptake in tumor in data set [3] (at 180 minutes, according to calculations) was 13.55±3.85 % ID/g. In data set [3] (early stages post-injection), the excretion entry is “rapidly excreted through the kidneys and bladder”. Moreover, the “time at which concentration of the radiopharmaceutical in the tumor reaches its peak” value in data set [3] (post-administration) worked out at 5 h.
